Patent publication US11254663B2 (BRISTOL-MYERS SQUIBB COMPANY, priority 2019, dated 2022)

These compounds were tested against FXR (Homo sapiens (Human), UniProt Q96RI1) (assay: transient human FXR/Gal4-luciferase reporter assay). Details: Gal4-hFXR fusion construct, HEK293 reporter cells; response relative to 8 μM GW-4064.
Assay type: cell-based
Outline: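 HEK293 cells stably carrying a 5×Gal4 response element–firefly luciferase reporter were transiently transfected overnight with a Gal4 DBD–human FXR LBD fusion plasmid. Compound was added in DMSO and cells were incubated overnight at 37 °C, 5% CO2. Activity was read as Steady-Glo luminescence.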

FXR, sequence (Q96RI1 262-486): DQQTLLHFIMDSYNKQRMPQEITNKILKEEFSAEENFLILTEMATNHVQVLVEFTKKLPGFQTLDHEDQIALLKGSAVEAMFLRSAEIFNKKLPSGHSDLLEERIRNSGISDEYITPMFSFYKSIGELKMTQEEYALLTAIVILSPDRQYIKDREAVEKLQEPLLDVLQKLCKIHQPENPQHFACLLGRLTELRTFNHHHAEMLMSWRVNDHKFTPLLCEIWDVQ

EC50 [nM] | Structure (SMILES)
65 | CC(C)(C)NC(=O)N(CC12CCC(c3noc(C(F)(F)F)n3)(CC1)CC2)c1cccc(-c2ccc(OC(F)F)cc2)c1 [Example 612, 3-(tert-butyl)-1-(4′-(difluoromethoxy)-[1,1′-biphenyl]-3-yl)-1-((4-(5-(trifluoromethyl)-1,2,4-oxadiazol-3-yl)bicyclo[2.2.2]octan-1-yl)methyl)urea]
79 | CC(C)(C)NC(=O)N(CC12CCC(c3noc(C(F)(F)F)n3)(CC1)CC2)c1cccc(-c2ccc(C(C)(C)OC(F)F)cc2)c1 [Example 613, 3-(tert-butyl)-1-(4′-(2-(difluoromethoxy)propan-2-yl)-[1,1′-biphenyl]-3-yl)-1-((4-(5-(trifluoromethyl)-1,2,4-oxadiazol-3-yl)bicyclo[2.2.2]octan-1-yl)methyl)urea]
171 | CC(C)(O)c1ccc(-c2cccc(N(CC34CCC(c5noc(C(F)(F)F)n5)(CC3)CC4)C(=O)NCC3CC4(CC4)C3)c2)cc1 [Example 614, 1-(4′-(2-hydroxypropan-2-yl)-[1,1′-biphenyl]-3-yl)-3-(spiro[2.3]hexan-5-ylmethyl)-1-((4-(5-(trifluoromethyl)-1,2,4-oxadiazol-3-yl)bicyclo[2.2.2]octan-1-yl)methyl)urea]
473 | CC(F)(F)c1nc(C23CCC(CN(C(=O)OC(C)(C)C(F)(F)F)c4cc(-c5ccc(OC(F)(F)Cl)cc5)ccn4)(CC2)CC3)no1 [Example 615, 1,1,1-trifluoro-2-methylpropan-2-yl (4-(4-(chlorodifluoromethoxy)phenyl)pyridin-2-yl)((4-(5-(1,1-difluoroethyl)-1,2,4-oxadiazol-3-yl)bicyclo[2.2.2]octan-1-yl)methyl)carbamate]
81 | CC(C)Oc1ccc(-c2cc(N(CC34CCC(c5nc(C6CC6)no5)(CC3)CC4)C(=O)OC(C)(C)C(F)(F)F)ncc2F)cc1 [Example 617, 1,1,1-trifluoro-2-methylpropan-2-yl ((4-(3-cyclopropyl-1,2,4-oxadiazol-5-yl)bicyclo[2.2.2]octan-1-yl)methyl)(5-fluoro-4-(4-isopropoxyphenyl)pyridin-2-yl)carbamate]
49 | CC(C)(O)c1ccc(-c2cc(N(CC34CCC(c5nc(C6CC6)no5)(CC3)CC4)C(=O)OC(C)(C)C(F)(F)F)ncc2F)cc1F [Example 618, 1,1,1-trifluoro-2-methylpropan-2-yl((4-(3-cyclopropyl-1,2,4-oxadiazol-5-yl)bicyclo[2.2.2]octan-1-yl)methyl)(5-fluoro-4-(3-fluoro-4-(2-hydroxypropan-2-yl)phenyl)pyridin-2-yl) carbamate]
28 | CC(C)(C)COC(=O)N(CC12CCC(c3noc(C(C)(F)F)n3)(CC1)CC2)c1cc(-c2ccc(C(C)(C)O)cc2)c(F)cn1 [Example 619, Neopentyl ((4-(5-(1,1-difluoroethyl)-1,2,4-oxadiazol-3-yl)bicyclo[2.2.2]octan-1-yl)methyl) (5-fluoro-4-(4-(2-hydroxypropan-2-yl)phenyl)pyridin-2-yl) carbamate]
29 | CC(C)(O)c1ccc(-c2cc(N(CC34CCC(c5noc(C(C)(C)F)n5)(CC3)CC4)C(=O)OC(C)(C)C(F)(F)F)ncc2F)cc1 [Example 620, 1,1,1-trifluoro-2-methylpropan-2-yl(5-fluoro-4-(4-(2-hydroxypropan-2-yl)phenyl)pyridin-2-yl)((4-(5-(2-fluoropropan-2-yl)-1,2,4-oxadiazol-3-yl)bicyclo[2.2.2]octan-1-yl)methyl) carbamate]
84 | CC(C)(F)c1nc(C23CCC(CN(C(=O)OC(C)(C)C(F)(F)F)c4cc(-c5cnn(CC6COC6)c5)c(F)cn4)(CC2)CC3)no1 [Example 621, 1,1,1-trifluoro-2-methylpropan-2-yl(5-fluoro-4-(1-(oxetan-3-ylmethyl)-1H-pyrazol-4-yl)pyridin-2-yl)((4-(5-(2-fluoropropan-2-yl)-1,2,4-oxadiazol-3-yl)bicyclo[2.2.2]octan-1-yl)methyl)carbamate]
34 | CC(C)(C#N)Oc1ccc(-c2ccnc(N(CC34CCC(c5nc(C6CC6)no5)(CC3)CC4)C(=O)OC(C)(C)C(F)(F)F)c2)cc1 [Example 622, 1,1,1-trifluoro-2-methylpropan-2-yl(4-(4-((2-cyanopropan-2-yl)oxy)phenyl)pyridin-2-yl) ((4-(3-cyclopropyl-1,2,4-oxadiazol-5-yl)bicyclo[2.2.2]octan-1-yl)methyl)carbamate]
50 | CC(C)(O)c1ccc(-c2cccc(N(CC34CCC(c5nc(C6CC6)no5)(CC3)CC4)C(=O)OC(C)(C)C(F)(F)F)c2)cc1 [Example 623, 1,1,1-trifluoro-2-methylpropan-2-yl((4-(3-cyclopropyl-1,2,4-oxadiazol-5-yl)bicyclo[2.2.2]octan-1-yl)methyl)(4′-(2-hydroxypropan-2-yl)-[1,1′-biphenyl]-3-yl)carbamate]
50 | CC(C)(OC(=O)N(CC12CCC(c3noc(C4(F)CC4)n3)(CC1)CC2)c1cc(-c2ccc(OC(F)F)cc2)ccn1)C(F)(F)F [Example 624, 1,1,1-trifluoro-2-methylpropan-2-yl(4-(4-(difluoromethoxy)phenyl)pyridin-2-yl)((4-(5-(1-fluorocyclopropyl)-1,2,4-oxadiazol-3-yl)bicyclo[2.2.2]octan-1-yl)methyl)carbamate]
18 | CC(C)(C#N)Oc1ccc(-c2ccnc(N(CC34CCC(c5noc(C6(F)CC6)n5)(CC3)CC4)C(=O)OC(C)(C)C(F)(F)F)c2)cc1 [Example 625, 1,1,1-trifluoro-2-methylpropan-2-yl(4-(4-((2-cyanopropan-2-yl)oxy)phenyl)pyridin-2-yl) ((4-(5-(1-fluorocyclopropyl)-1,2,4-oxadiazol-3-yl)bicyclo[2.2.2]octan-1-yl)methyl) carbamate]
72 | CC(C)Oc1ccc(-c2ccnc(N(CC34CCC(c5noc(C(C)(F)F)n5)(CC3)CC4)C(=O)N3CCOCC3)c2)cc1 [Example 626, N-((4-(5-(1,1-difluoroethyl)-1,2,4-oxadiazol-3-yl)bicyclo[2.2.2]octan-1-yl)methyl)-N-(4-(4-isopropoxyphenyl)pyridin-2-yl)morpholine-4-carboxamide]
99 | CC(C)(F)c1nc(C23CCC(CN(C(=O)O[C@H]4C[C@](O)(C(F)(F)F)C4)c4cc(-c5ccc(OC(F)F)cc5)c(F)cn4)(CC2)CC3)no1 [Example 629, (cis)-3-hydroxy-3-(trifluoromethyl)cyclobutyl (4-(4-(difluoromethoxy)phenyl)-5-fluoropyridin-2-yl)((4-(5-(2-fluoropropan-2-yl)-1,2,4-oxadiazol-3-yl)bicyclo[2.2.2]octan-1-yl)methyl)carbamate]
160 | CC(C)(F)c1nc(C23CCC(CN(C(=O)OC4CC(F)(F)C4)c4cc(-c5ccc(OC(F)F)cc5)c(F)cn4)(CC2)CC3)no1 [Example 630, 3,3-difluorocyclobutyl(4-(4-(difluoromethoxy)phenyl)-5-fluoropyridin-2-yl)((4-(5-(2-fluoropropan-2-yl)-1,2,4-oxadiazol-3-yl)bicyclo[2.2.2]octan-1-yl)methyl)carbamate]
117 | CC(C)(F)c1nc(C23CCC(CN(C(=O)OC4CCC(F)(F)CC4)c4cc(-c5ccc(OC(F)F)cc5)c(F)cn4)(CC2)CC3)no1 [Example 631, 4,4-difluorocyclohexyl (4-(4-(difluoromethoxy)phenyl)-5-fluoropyridin-2-yl) ((4-(5-(2-fluoropropan-2-yl)-1,2,4-oxadiazol-3-yl)bicyclo[2.2.2]octan-1-yl)methyl) carbamate]
222 | CC(C)Oc1ccc(-c2cccc(N(CC34CCC(c5noc(C(C)(C)F)n5)(CC3)CC4)C(=O)OC3(C(F)(F)F)COC3)c2)cc1 [Example 632, 3-(trifluoromethyl)oxetan-3-yl ((4-(5-(2-fluoropropan-2-yl)-1,2,4-oxadiazol-3-yl)bicyclo[2.2.2]octan-1-yl)methyl)(4′-isopropoxy-[1,1′-biphenyl]-3-yl)carbamate]
32 | CC(C)(O)Cn1cc(-c2cc(N(CC34CCC(c5noc(C(C)(F)F)n5)(CC3)CC4)C(=O)NC34CC(C3)C4)ccc2F)cn1 [Example 633, 3-(bicyclo[1.1.1]pentan-1-yl)-1-((4-(5-(1,1-difluoroethyl)-1,2,4-oxadiazol-3-yl)bicyclo[2.2.2]octan-1-yl)methyl)-1-(4-fluoro-3-(1-(2-hydroxy-2-methylpropyl)-1H-pyrazol-4-yl)phenyl)urea]
31 | CC(C)(O)c1ccc(-c2ccnc(N(CC34CCC(c5noc(C(C)(C)F)n5)(CC3)CC4)C(=O)OC(C)(C)C(F)(F)F)c2)cc1 [Example 634, 1,1,1-trifluoro-2-methylpropan-2-yl((4-(5-(2-fluoropropan-2-yl)-1,2,4-oxadiazol-3-yl)bicyclo[2.2.2]octan-1-yl)methyl)(4-(4-(2-hydroxypropan-2-yl)phenyl)pyridin-2-yl) carbamate]
1280 | CC(C)(O)c1ccc(-c2nccc(N(CC34CCC(c5noc(C(C)(C)F)n5)(CC3)CC4)C(=O)OC(C)(C)C(F)(F)F)n2)cc1 [Example 635, 1,1,1-trifluoro-2-methylpropan-2-yl ((4-(5-(2-fluoropropan-2-yl)-1,2,4-oxadiazol-3-yl)bicyclo[2.2.2]octan-1-yl)methyl)(2-(4-(2-hydroxypropan-2-yl)phenyl)pyrimidin-4-yl) carbamate]
68 | CC(C)Oc1ccc(-c2ccnc(N(CC34CCC(c5noc(C(C)(C)F)n5)(CC3)CC4)C(=O)OC(C)(C)C(F)(F)F)n2)cc1 [Example 636, 1,1,1-trifluoro-2-methylpropan-2-yl ((4-(5-(2-fluoropropan-2-yl)-1,2,4-oxadiazol-3-yl)bicyclo[2.2.2]octan-1-yl)methyl)(4-(4-isopropoxyphenyl)pyrimidin-2-yl)carbamate]
384 | O=C(NC12CCC(CN(C(=O)C3CC(O)(C(F)(F)F)C3)c3cccc(-c4ccc(OC(F)F)cc4)c3)(CC1)CC2)c1ccc(F)cc1 (stereo not drawn) [Example 637, N-(4-(((cis)-N-(4′-(difluoromethoxy)-[1,1′-biphenyl]-3-yl)-3-hydroxy-3-(trifluoromethyl)cyclobutane-1-carboxamido)methyl)bicyclo[2.2.2]octan-1-yl)-4-fluorobenzamide]
